According to patent US6461997B1, “Triazole sulfones having herbicidal activity” (Monsanto Technology LLC, priority 1999, dated 2002):

Experiments:
AVEFA (wild oat) = assay: Pre-plant incorporated (PPI) herbicidal activity, cool season; format: in vivo, Avena fatua; settings: for PPI activity GR80, AVEFA: pre-plant incorporated, lowest tested rate with 80% or greater inhibition, about 14 days
How it was run: (§1)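 Efficacy is percent inhibition against untreated pots, rated roughly 14 days after treatment. Compound dissolved or suspended in organic solvent was sprayed onto the cover soil, mixed in, and layered over surface-sown seeds, then watered with 0.64 cm overhead. Day/night temperatures were 18/13 °C for cool-season and 30/21 °C for warm-season species.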

soybean (GLYMX) = assay: Selectivity test, PPI, warm season crop; format: in vivo, Glycine max; settings: PPI application
How it was run: (§2)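 Percent inhibition relative to untreated controls, assessed roughly 14 days post-planting. Seeds were covered with a soil layer into which solvent-borne compound had been sprayed and mixed. Plants were then grown at 30/21° C. (warm season) or 18/13° C. (cool season) day/night regimes.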

SOLNI (black nightshade) = assay: Pre-emergence herbicidal activity, warm season; format: in vivo, Solanum nigrum; settings: GR80 = lowest tested rate (300, 100, 30, 10 g/ha) with 80% or greater inhibition; approx. 14 days after treating; 30/21° C.
How it was run: (§3)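 GR80 values derive from percent inhibition relative to untreated plants, read roughly 14 days after sowing and pre-emergence soil-surface treatment (compound in 50:50 acetone/water; rates typically 10, 30, 100, 300 g/ha). Warm-season weeds grew at 30/21° C day/night, cool-season ones at 18/13° C; an asterisk marks activity without reaching 80% at the highest rate.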

[1] = test system: AGSST (creeping bentgrass); assay: Pre-plant incorporated (PPI) herbicidal activity, cool season; format: in vivo, Agrostis stolonifera; settings: for PPI activity GR80, AGSST: pre-plant incorporated, lowest tested rate with 80% or greater inhibition, about 14 days
How it was run: as §1

corn (ZEAMX) = assay: Selectivity test, PPI, warm season crop; format: in vivo, Zea mays; settings: PPI application
How it was run: as §2

[2] = test system: CIRAR (canada thistle (seedling)); assay: Pre-emergence herbicidal activity, warm season; format: in vivo, Cirsium arvense; settings: GR80 = lowest tested rate (300, 100, 30, 10 g/ha) with 80% or greater inhibition; approx. 14 days after treating; 30/21° C.
How it was run: as §3

LOLMG (annual ryegrass) = assay: Pre-plant incorporated (PPI) herbicidal activity, cool season; format: in vivo, Lolium multiflorum; settings: for PPI activity GR80, LOLMG: pre-plant incorporated, lowest tested rate with 80% or greater inhibition, about 14 days
How it was run: as §1

[3] = test system: PANMI (wild proso millet); assay: Pre-emergence herbicidal activity, warm season; format: in vivo, Panicum miliaceum; settings: GR80 = lowest tested rate (300, 100, 30, 10 g/ha) with 80% or greater inhibition; approx. 14 days after treating; 30/21° C.
How it was run: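 Pre-emergence soil-surface spray; rates 300/100/30/10 g/ha; acetone:water 50:50 diluent. Warm-season species (PANMI, DIGSA) grown at 30/21 °C, cool-season species (ALOMY, POLCO) at 18/13 °C. Inhibition scored ~14 d after treatment versus untreated controls → GR80.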

DIGSA (large crabgrass) = assay: Pre-plant incorporated (PPI) herbicidal activity, warm season; format: in vivo, Digitaria sanguinalis; settings: for PPI activity GR80, DIGSA: pre-plant incorporated, lowest tested rate with 80% or greater inhibition, about 14 days
How it was run: as §1

SASKR (russian thistle) = assay: Pre-plant incorporated (PPI) herbicidal activity, cool season; format: in vivo, Salsola kali; settings: for PPI activity GR80, SASKR: pre-plant incorporated, lowest tested rate with 80% or greater inhibition, about 14 days
How it was run: as §1

STEME (common chickweed) = assay: Pre-emergence herbicidal activity, cool season; format: in vivo, Stellaria media; settings: lowest tested rate with 80% or greater inhibition; rates 300, 100, 30, 10 g/ha; about 14 days
How it was run: as §3

[4] = weed, PPI application, 100 g/ha
[5] = weed, PPI application, 300 g/ha
[6] = weed, PPI application, 900 g/ha

In the case of `CCN(CC)C(=O)n1cnc(S(=O)(=O)C(F)(F)SCC(=O)OC)n1` [Example 11], the “PPI activity GR80, AVEFA” value (AVEFA (wild oat)) is reported as “[empty]”, the “Percent inhibition AVEFA” value (AVEFA (wild oat); weed, PPI application, 10 g/ha) is reported as 0% and the “Percent inhibition AVEFA” value (AVEFA (wild oat); weed, PPI application, 30 g/ha) is reported as 0%. For the same compound, the “Percent inhibition AVEFA” value (AVEFA (wild oat); [4]) was 0%, the “Percent inhibition AVEFA” value (AVEFA (wild oat); [5]) was 0% and the “Percent inhibition AVEFA” value (AVEFA (wild oat); [6]) was 60%. For the same compound, the “Percent inhibition GLYMX” value (soybean (GLYMX); 10 g/ha) was 0%, the “Percent inhibition GLYMX” value (soybean (GLYMX); 30 g/ha) was 0% and the “Percent inhibition GLYMX” value (soybean (GLYMX); 100 g/ha) was 0%. The “Percent inhibition GLYMX” value (soybean (GLYMX); 300 g/ha) was 10%, the “Percent inhibition GLYMX” value (soybean (GLYMX); 900 g/ha) was 30% and the “Pre-emergence activity (GR80) SOLNI” value (SOLNI (black nightshade)) was 300 g/ha. The “PPI activity GR80, AGSST” value [1] was 300 g/ha, the “Percent inhibition AGSST” value ([1]; weed, PPI application, 10 g/ha) was 60% and the “Percent inhibition AGSST” value ([1]; weed, PPI application, 30 g/ha) was 50%. For the same compound, the “Percent inhibition AGSST” value [1, 4] was 60%, the “Percent inhibition AGSST” value [1, 5] was 90% and the “Percent inhibition AGSST” value [1, 6] was 100%. For the same compound, the “Percent inhibition ZEAMX” value (corn (ZEAMX); 10 g/ha) was 0%, the “Percent inhibition ZEAMX” value (corn (ZEAMX); 30 g/ha) was 0% and the “Percent inhibition ZEAMX” value (corn (ZEAMX); 100 g/ha) was 0%. For the same compound, the “Percent inhibition ZEAMX” value (corn (ZEAMX); 300 g/ha) was 0%, the “Percent inhibition ZEAMX” value (corn (ZEAMX); 900 g/ha) was 10% and the “Pre-emergence activity (GR80) CIRAR” value [2] was 300 g/ha. The “PPI activity GR80, LOLMG” value (LOLMG (annual ryegrass)) was “[empty]”, the “Percent inhibition LOLMG” value (LOLMG (annual ryegrass); weed, PPI application, 10 g/ha) was 20% and the “Percent inhibition LOLMG” value (LOLMG (annual ryegrass); weed, PPI application, 30 g/ha) was 40%. The “Percent inhibition LOLMG” value (LOLMG (annual ryegrass); [4]) was 70%, the “Percent inhibition LOLMG” value (LOLMG (annual ryegrass); [5]) was 99% and the “Percent inhibition LOLMG” value (LOLMG (annual ryegrass); [6]) was 95%. The “Pre-emergence activity (GR80) PANMI” value [3] was 300 g/ha, the “Percent inhibition DIGSA” value (DIGSA (large crabgrass); PPI application, 10 g/ha) was 0% and the “Percent inhibition DIGSA” value (DIGSA (large crabgrass); PPI application, 30 g/ha) was 0%. The “Percent inhibition DIGSA” value (DIGSA (large crabgrass); PPI application, 100 g/ha) was 70%, the “Percent inhibition DIGSA” value (DIGSA (large crabgrass); PPI application, 300 g/ha) was 90% and the “Percent inhibition DIGSA” value (DIGSA (large crabgrass); PPI application, 900 g/ha) was 100%. The “PPI activity GR80, DIGSA” value (DIGSA (large crabgrass)) was 300 g/ha, the “PPI activity GR80, SASKR” value (SASKR (russian thistle)) was 100 g/ha and the “Percent inhibition SASKR” value (SASKR (russian thistle); weed, PPI application, 10 g/ha) was 0%. The “Percent inhibition SASKR” value (SASKR (russian thistle); weed, PPI application, 30 g/ha) was 20%, the “Percent inhibition SASKR” value (SASKR (russian thistle); [5]) was 30% and the “Percent inhibition SASKR” value (SASKR (russian thistle); [6]) was 65%. For the same compound, the “Pre-emergence activity GR80, STEME” value (STEME (common chickweed)) was “[empty]”.

Work on `C=C(C)CC(F)(F)S(=O)(=O)c1ncn(C(=O)N(CC)CC)n1` [Example 18] yielded an inhibition at 10 g/ha (AVEFA (wild oat); Avena fatua, weed, PPI application, 10 g/ha, read-out: Percent inhibition AVEFA) of 0%, an inhibition at 30 g/ha (AVEFA (wild oat); Avena fatua, weed, PPI application, 30 g/ha, read-out: Percent inhibition AVEFA) of 0% and an inhibition at 100 g/ha (AVEFA (wild oat); Avena fatua, weed, PPI application, 100 g/ha, read-out: Percent inhibition AVEFA) of 10%. The inhibition at 300 g/ha (AVEFA (wild oat); Avena fatua, weed, PPI application, 300 g/ha, read-out: Percent inhibition AVEFA) was 50%, the inhibition at 900 g/ha (AVEFA (wild oat); Avena fatua, weed, PPI application, 900 g/ha, read-out: Percent inhibition AVEFA) was 99% and the “PPI activity GR80, AVEFA” value (AVEFA (wild oat)) was 300 g/ha. It also gave an inhibition at 10 g/ha (soybean (GLYMX); Glycine max, 10 g/ha, read-out: Percent inhibition GLYMX) of 0%, an inhibition at 30 g/ha (soybean (GLYMX); Glycine max, 30 g/ha, read-out: Percent inhibition GLYMX) of 0% and an inhibition at 100 g/ha (soybean (GLYMX); Glycine max, 100 g/ha, read-out: Percent inhibition GLYMX) of 0%. For the same compound, the inhibition at 300 g/ha (soybean (GLYMX); Glycine max, 300 g/ha, read-out: Percent inhibition GLYMX) was 0%, the inhibition at 900 g/ha (soybean (GLYMX); Glycine max, 900 g/ha, read-out: Percent inhibition GLYMX) was 50% and the “Pre-emergence activity (GR80) SOLNI” value (SOLNI (black nightshade)) was 100 g/ha. The inhibition at 10 g/ha ([1]; Agrostis stolonifera, weed, PPI application, 10 g/ha, read-out: Percent inhibition AGSST) was 100%, the inhibition at 30 g/ha ([1]; Agrostis stolonifera, weed, PPI application, 30 g/ha, read-out: Percent inhibition AGSST) was 60% and the inhibition at 100 g/ha ([1]; Agrostis stolonifera, weed, PPI application, 100 g/ha, read-out: Percent inhibition AGSST) was 100%. For the same compound, the inhibition at 300 g/ha ([1]; Agrostis stolonifera, weed, PPI application, 300 g/ha, read-out: Percent inhibition AGSST) was 99%, the inhibition at 900 g/ha ([1]; Agrostis stolonifera, weed, PPI application, 900 g/ha, read-out: Percent inhibition AGSST) was 100% and the “PPI activity GR80, AGSST” value [1] was 10 g/ha. For the same compound, the inhibition at 10 g/ha (corn (ZEAMX); Zea mays, 10 g/ha, read-out: Percent inhibition ZEAMX) was 0%, the inhibition at 30 g/ha (corn (ZEAMX); Zea mays, 30 g/ha, read-out: Percent inhibition ZEAMX) was 0% and the inhibition at 100 g/ha (corn (ZEAMX); Zea mays, 100 g/ha, read-out: Percent inhibition ZEAMX) was 10%. The inhibition at 300 g/ha (corn (ZEAMX); Zea mays, 300 g/ha, read-out: Percent inhibition ZEAMX) was 15%, the inhibition at 900 g/ha (corn (ZEAMX); Zea mays, 900 g/ha, read-out: Percent inhibition ZEAMX) was 20% and the “Pre-emergence activity (GR80) CIRAR” value [2] was 300 g/ha. The inhibition at 10 g/ha (LOLMG (annual ryegrass); Lolium multiflorum, weed, PPI application, 10 g/ha, read-out: Percent inhibition LOLMG) was 20%, the inhibition at 30 g/ha (LOLMG (annual ryegrass); Lolium multiflorum, weed, PPI application, 30 g/ha, read-out: Percent inhibition LOLMG) was 60% and the inhibition at 100 g/ha (LOLMG (annual ryegrass); Lolium multiflorum, weed, PPI application, 100 g/ha, read-out: Percent inhibition LOLMG) was 50%. The inhibition at 300 g/ha (LOLMG (annual ryegrass); Lolium multiflorum, weed, PPI application, 300 g/ha, read-out: Percent inhibition LOLMG) was 100%, the inhibition at 900 g/ha (LOLMG (annual ryegrass); Lolium multiflorum, weed, PPI application, 900 g/ha, read-out: Percent inhibition LOLMG) was 100% and the “PPI activity GR80, LOLMG” value (LOLMG (annual ryegrass)) was 100 g/ha. The “Pre-emergence activity (GR80) PANMI” value [3] was 30 g/ha, the inhibition at 10 g/ha (DIGSA (large crabgrass); Digitaria sanguinalis, PPI application, 10 g/ha, read-out: Percent inhibition DIGSA) was 20% and the inhibition at 30 g/ha (DIGSA (large crabgrass); Digitaria sanguinalis, PPI application, 30 g/ha, read-out: Percent inhibition DIGSA) was 80%. It also gave an inhibition at 100 g/ha (DIGSA (large crabgrass); Digitaria sanguinalis, PPI application, 100 g/ha, read-out: Percent inhibition DIGSA) of 80%, an inhibition at 300 g/ha (DIGSA (large crabgrass); Digitaria sanguinalis, PPI application, 300 g/ha, read-out: Percent inhibition DIGSA) of 100% and an inhibition at 900 g/ha (DIGSA (large crabgrass); Digitaria sanguinalis, PPI application, 900 g/ha, read-out: Percent inhibition DIGSA) of 100%. For the same compound, the “PPI activity GR80, DIGSA” value (DIGSA (large crabgrass)) was 30 g/ha, the inhibition at 10 g/ha (SASKR (russian thistle); Salsola kali, weed, PPI application, 10 g/ha, read-out: Percent inhibition SASKR) was 0% and the inhibition at 30 g/ha (SASKR (russian thistle); Salsola kali, weed, PPI application, 30 g/ha, read-out: Percent inhibition SASKR) was 0%. It also gave an inhibition at 100 g/ha (SASKR (russian thistle); Salsola kali, weed, PPI application, 100 g/ha, read-out: Percent inhibition SASKR) of 80%, an inhibition at 300 g/ha (SASKR (russian thistle); Salsola kali, weed, PPI application, 300 g/ha, read-out: Percent inhibition SASKR) of 80% and an inhibition at 900 g/ha (SASKR (russian thistle); Salsola kali, weed, PPI application, 900 g/ha, read-out: Percent inhibition SASKR) of 100%. The “PPI activity GR80, SASKR” value (SASKR (russian thistle)) was 30 g/ha and the “Pre-emergence activity GR80, STEME” value (STEME (common chickweed)) was 30 g/ha.
